IC50 and inhibition data for 33 compounds are collected here from ChEMBL document CHEMBL2062376, “Novel oxazolo[4,5-g]quinazolin-2(1H)-ones: dual inhibitors of EGFR and Src protein tyrosine kinases” (Eur J Med Chem, 2012).

For one assay, the system named is KB. Kind of assay: Antiproliferative activity against human KB cells expressing EGFR and SRC by MTT assay. Format: functional, cell-based.
In assay [1] the target is T1, Epidermal growth factor receptor (Homo sapiens, UniProt P00533).
Assay [2] addresses Proto-oncogene tyrosine-protein kinase Src (Homo sapiens, UniProt P12931). Kind of assay: Inhibition of SRC.
A further assay relates to A498. As to the kind of experiment: Antiproliferative activity against human A498 cells expressing EGFR and SRC by MTT assay. Format: functional, cell-based. (Tetrazolium dyes change colour on reduction, which living cells bring about.)
The target of assay [3] is T1, Epidermal growth factor receptor. As to the kind of experiment: Inhibition of EGFR at >100 uM.

A word on the IC50: it is the concentration that gives 50% inhibition.

Each structure is given as a SMILES string. Activity calls are given as the source filed them. The rule behind the calls is not given here.

Sequence of Proto-oncogene tyrosine-protein kinase Src (P12931 2-536 limits assumed): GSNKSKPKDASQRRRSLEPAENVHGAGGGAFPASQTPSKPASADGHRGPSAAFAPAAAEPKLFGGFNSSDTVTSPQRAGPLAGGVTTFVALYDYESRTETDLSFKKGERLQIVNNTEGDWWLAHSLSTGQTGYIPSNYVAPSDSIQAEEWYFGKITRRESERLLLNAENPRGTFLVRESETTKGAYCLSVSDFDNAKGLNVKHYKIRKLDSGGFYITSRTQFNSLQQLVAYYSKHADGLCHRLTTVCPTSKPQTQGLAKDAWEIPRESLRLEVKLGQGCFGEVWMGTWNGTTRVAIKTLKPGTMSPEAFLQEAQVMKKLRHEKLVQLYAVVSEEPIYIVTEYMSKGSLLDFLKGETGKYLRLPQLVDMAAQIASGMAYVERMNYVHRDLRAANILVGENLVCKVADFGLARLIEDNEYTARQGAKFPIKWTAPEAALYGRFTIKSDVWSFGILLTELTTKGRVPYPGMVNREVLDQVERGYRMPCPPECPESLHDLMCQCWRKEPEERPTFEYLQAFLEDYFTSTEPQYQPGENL
T1 sequence (P00533 whole entry): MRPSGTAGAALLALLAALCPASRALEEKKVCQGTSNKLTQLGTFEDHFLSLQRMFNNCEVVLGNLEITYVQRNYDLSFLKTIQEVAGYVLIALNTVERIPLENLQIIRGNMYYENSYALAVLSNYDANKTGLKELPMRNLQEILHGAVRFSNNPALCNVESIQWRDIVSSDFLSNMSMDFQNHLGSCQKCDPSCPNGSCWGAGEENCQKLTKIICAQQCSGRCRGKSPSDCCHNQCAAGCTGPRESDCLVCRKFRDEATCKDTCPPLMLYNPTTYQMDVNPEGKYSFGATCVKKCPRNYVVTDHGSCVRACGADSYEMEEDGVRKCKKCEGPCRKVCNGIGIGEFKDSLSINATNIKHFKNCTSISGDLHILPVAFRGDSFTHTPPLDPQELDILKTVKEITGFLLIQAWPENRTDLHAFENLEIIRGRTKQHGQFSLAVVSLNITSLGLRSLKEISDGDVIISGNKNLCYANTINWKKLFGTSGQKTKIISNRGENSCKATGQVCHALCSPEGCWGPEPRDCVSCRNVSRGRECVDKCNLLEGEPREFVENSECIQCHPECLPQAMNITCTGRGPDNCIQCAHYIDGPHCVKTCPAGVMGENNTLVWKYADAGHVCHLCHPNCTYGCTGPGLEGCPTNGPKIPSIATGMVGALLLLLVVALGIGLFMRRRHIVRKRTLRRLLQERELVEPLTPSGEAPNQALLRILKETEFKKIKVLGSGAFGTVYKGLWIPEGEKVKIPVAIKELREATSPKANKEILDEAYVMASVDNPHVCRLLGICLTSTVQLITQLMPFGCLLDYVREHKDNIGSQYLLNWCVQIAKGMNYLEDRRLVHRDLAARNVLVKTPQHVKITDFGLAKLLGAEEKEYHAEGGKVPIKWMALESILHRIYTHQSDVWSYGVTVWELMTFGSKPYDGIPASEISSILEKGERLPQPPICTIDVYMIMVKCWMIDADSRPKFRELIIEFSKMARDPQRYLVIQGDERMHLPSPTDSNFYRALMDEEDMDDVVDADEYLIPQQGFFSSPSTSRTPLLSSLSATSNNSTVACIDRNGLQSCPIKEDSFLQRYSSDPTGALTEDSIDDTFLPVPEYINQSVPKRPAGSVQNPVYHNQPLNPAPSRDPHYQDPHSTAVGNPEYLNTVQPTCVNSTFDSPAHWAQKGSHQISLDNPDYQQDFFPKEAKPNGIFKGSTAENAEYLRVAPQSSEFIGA

As to `CCOC(=O)c1ccc(Nc2ncnc3cc4oc(=O)n(CCCN5CCOCC5)c4cc23)cc1`, the IC50 was 6 µM with KB, 5.8 µM in assay [1], 3.1 µM in assay [2] and 8.8 µM with A498.

In the case of `O=c1oc2cc3ncnc(Nc4ccc(OCc5ccc(Cl)cc5)c(Cl)c4)c3cc2n1CCCN1CCOCC1`, the half-maximal inhibitory concentration (IC50) is 0.82 µM in the assay on KB, 0.061 µM in assay [1] and 3 µM in the assay on A498. As to `Cc1c(OCC(F)(F)F)ccnc1COc1cccc(Nc2ncnc3cc4oc(=O)n(CCCN5CCOCC5)c4cc23)c1`, the IC50 in the assay on KB amounted to 16 µM; in assay [1] it was 0.099 µM; with A498, 35.3 µM.

Take `O=c1oc2cc3ncnc(Nc4ccc5[nH]ncc5c4)c3cc2n1CCCN1CCOCC1`: the IC50 with KB is 18.5 µM; in assay [1] it was 0.12 µM; in the assay on A498 it was 18.7 µM. As to `O=c1oc2cc3ncnc(N[C@H]4CC[C@H](O)CC4)c3cc2n1CCCN1CCOCC1`, the inhibition result in assay [3] is “inactive”. In turn, `COc1ccc(Nc2ncnc3cc4oc(=O)n(CCCN5CCOCC5)c4cc23)cc1` returned an IC50 in assay [1] of 0.38 µM. In the case of `Cc1ccccc1Nc1ncnc2cc3oc(=O)n(CCCN4CCOCC4)c3cc12`, the inhibition entry in assay [3] was “inactive”. As for `O=C(OCc1ccc(Cl)cc1)c1ccc(Nc2ncnc3cc4oc(=O)n(CCCN5CCOCC5)c4cc23)cc1`, the inhibition entry in assay [3] was “inactive”. In turn, `O=c1oc2cc3ncnc(Nc4ccc(F)c(F)c4)c3cc2n1CCCN1CCOCC1` registered a concentration for half-maximal inhibition (IC50) in assay [1] of 0.57 µM.

For the compound `CN(c1ccccc1)c1ncnc2cc3oc(=O)n(CCCN4CCOCC4)c3cc12`, it took 7.2 µM to reach half-maximal inhibition in assay [1] (IC50). With `O=c1oc2cc3ncnc(Nc4ccc(OCc5ccccc5)cc4)c3cc2n1CCCN1CCOCC1`, the IC50 with KB was 37.6 µM; in assay [1], 0.14 µM; with A498, 14.8 µM. Take `CC(=O)Nc1ccc(Nc2ncnc3cc4oc(=O)n(CCCN5CCOCC5)c4cc23)cc1`: in assay [3], the inhibition entry is “inactive”. In assay [1], `C#Cc1cccc(Nc2ncnc3cc4oc(=O)n(CCCN5CCOCC5)c4cc23)c1` yielded an IC50 of 0.38 µM.

In the case of `Cc1ccc(Nc2ncnc3cc4oc(=O)n(CCCN5CCOCC5)c4cc23)cc1`, the IC50 was 0.067 µM in assay [1] and 7.5 µM in assay [2]. `Cc1c(OCC(F)(F)F)ccnc1COc1ccc(Nc2ncnc3cc4oc(=O)n(CCCN5CCOCC5)c4cc23)cc1` yielded an IC50 in assay [1] of 7.8 µM. As for `C[C@@H](Nc1ncnc2cc3oc(=O)n(CCCN4CCOCC4)c3cc12)c1ccccc1`, the half-inhibitory concentration (IC50) in assay [1] came to 4.5 µM. Turning to `O=c1oc2cc3ncnc(Nc4ccc(F)c(Cl)c4)c3cc2n1CCCN1CCOCC1`, the figures for the concentration for half-maximal inhibition (IC50) (in the assay on KB; in assay [1]; in the assay on A498) were 6.5 µM, 0.078 µM and 32 µM, respectively. The compound `O=c1oc2cc3ncnc(Nc4ccccc4O)c3cc2n1CCCN1CCOCC1` gave an IC50 in assay [1] of 30 µM. Regarding `O=c1oc2cc3ncnc(Nc4ccc(OCc5ccc(Cl)cc5)cc4)c3cc2n1CCCN1CCOCC1`, the figures for the IC50 (in the assay on KB; in assay [1]; in the assay on A498) were 37.1 µM, 0.99 µM and 7.4 µM, respectively. For the compound `CN1CCN(c2ncnc3cc4oc(=O)n(CCCN5CCOCC5)c4cc23)CC1`, in assay [3], the inhibition result is “inactive”. `O=c1oc2cc3ncnc(NCc4ccccc4)c3cc2n1CCCN1CCOCC1` had a half-inhibitory concentration (IC50) in assay [1] of 65 µM. For `O=c1oc2cc3ncnc(Nc4ccc(Cl)cc4)c3cc2n1CCCN1CCOCC1`, the inhibition entry in assay [3] is “inactive”.

In assay [2], `CN(C)S(=O)(=O)c1ccc2c(c1)/C(=C/c1cc3c([nH]1)CCCC3)C(=O)N2` gave an IC50 of 0.073 µM. Regarding `O=c1oc2cc3ncnc(Nc4ccc(OCc5ccccn5)cc4)c3cc2n1CCCN1CCOCC1`, in assay [1], inhibition was half-maximal at 1.7 µM (IC50).

For the compound `CC(=O)c1cccc(Nc2ncnc3cc4oc(=O)n(CCCN5CCOCC5)c4cc23)c1`, in assay [1], the half-maximal inhibitory concentration (IC50) was 6.8 µM. As to `NS(=O)(=O)c1ccc(Nc2ncnc3cc4oc(=O)n(CCCN5CCOCC5)c4cc23)cc1`, the inhibition result in assay [3] was “inactive”. On to `Cc1cc(C)cc(Nc2ncnc3cc4oc(=O)n(CCCN5CCOCC5)c4cc23)c1`, for which the IC50 in assay [1] was determined as 75 µM. Turning to `CC(C)(C)c1ccc(Nc2ncnc3cc4oc(=O)n(CCCN5CCOCC5)c4cc23)cc1`, inhibition in assay [1] was half-maximal at 79 µM (IC50). In assay [1], `CC(C)Oc1cccc(Nc2ncnc3cc4oc(=O)n(CCCN5CCOCC5)c4cc23)c1` came in with an IC50 of 3 µM. This IC50 is about 26-fold lower than that of the compound before. In assay [1], `C[C@H](Nc1ncnc2cc3oc(=O)n(CCCN4CCOCC4)c3cc12)c1ccccc1` registered a concentration for half-maximal inhibition (IC50) of 3.7 µM. On to `O=c1oc2cc3ncnc(Nc4ccc(O)cc4)c3cc2n1CCCN1CCOCC1`, for which, in assay [3], the inhibition result is “inactive”. Moreover, inhibition in assay [2] was half-maximal at 66 µM (IC50). As to `CCOC(=O)c1ccc(O)c(Nc2ncnc3cc4oc(=O)n(CCCN5CCOCC5)c4cc23)c1`, the concentration for half-maximal inhibition (IC50) was 8.1 µM with KB, 0.23 µM in assay [1] and 15.7 µM with A498.

For `COc1ccc(Nc2ncnc3cc4oc(=O)n(CCCN5CCOCC5)c4cc23)cc1OC`, the inhibition result in assay [3] is “inactive”.
